Legend:
[1] = Tumor targeting efficacy: drug distribution between tumor and healthy tissues in xenograft mice (LC/MS); type: in vivo; settings: female, athymic nude, mouse, iv; tumor tissue; 10 mg/kg/day i.v.; organs collected 16 hours after administration
Method: (§1) To evaluate the tumor-targeting characteristics of the targeting-enhanced nanoparticles formulated in the Examples 1 and 2, the nanoparticles were injected into mice containing human breast xenograft tumors, and the distribution of radioactivity between tumor tissues and healthy tissues was analyzed.
(§2) When the tumors reached a size of ˜100 mm^3, mice were treated intravenously with either saline control or nanoparticle preparations prepared in Examples 1 and 2, at a dose of 10 mg/kg/day. Organs from each mouse were collected at 16 hours after nanoparticle administration and ground completely with the Beadbeater. The analyte drugs were extracted from the ground tissues with acetonitrile, and the drug concentrations in each tissue were analyzed by LC/MS. The drug concentrations delivered to each tissue relative to the Injected Dose (ID) were measured in both healthy and tumor tissues, as shown in Table 3.
(§3) Targeting-enhanced nanoparticles containing paclitaxel were administered intravenously to mice with tumor xenografts, and at 4 hours after injection, the mice were exposed to a light-emitting diode, LED, at the wavelength of 630 nm at an intensity of […] for 30 minutes.

[2] = system: human breast xenograft tumors (MDA-MB-231); assay: as above; type: in vivo; settings: 10 mg/kg/day i.v., organs collected 16 hours after administration; for healthy % ID/g: healthy tissues
Method: as §1, §2, §3

[3] = system: large-sized tumor xenografts representing late-stage cancer; assay: Efficacy of doxorubicin nanoparticles in late-stage cancer xenograft; type: in vivo, mice; settings: without LED stated
Method: The lung cancer cell line NCI-H460-luc2 (Caliper Life Sciences) was prepared in suspension at 5×10^6 cells.
Tumor growth was monitored using bioluminescence imaging of luciferase-expressing cancer cell lines. Mice were injected intraperitoneally with D-luciferin at a dosage of 150 mg luciferin/kg body weight. Mice were then anesthetized under isoflurane gas supplemented with oxygen and placed under a camera equipped with a Xenogen IVIS 200 imager to generate a bioluminescent image using an IVIS imaging system (Xenogen). Bioluminescence color images were superimposed using Living Image software.

healthy mice = assay: Toxicity (LD50) in healthy mice; type: in vivo; settings: monitored 14 days, based on mortality
Method: After establishment of the tumor-xenograft model, either healthy mice or tumor-xenografted mice were divided into three groups (n=6) receiving saline solution (control group), free paclitaxel at the indicated dose, or targeting-enhanced nanoparticles in saline solution at the indicated dose of paclitaxel. […] To evaluate their toxicity, targeting-enhanced nanoparticles were administered to healthy mice and tumor-xenograft mice at 10 different dosages of paclitaxel: 20, 40, 60, 80, 100, 120, 250, 300, 350, and 400 mg/kg/day. Body weights and physical changes were monitored over 14 days, and the LD50s were calculated based on mortality.

| Structure (SMILES) | tissue uptake at 16 h [1] [%ID/g] | healthy % ID/g [2] | tumor growth day 0 to day 28 (FIG. 10) [3] | tumor % ID/g ([2]; tumor tissue) [% ID/g] | LD50 (healthy mice) [mg/kg/day] |
| --- | --- | --- | --- | --- | --- |
| COc1cccc2c1C(=O)c1c(O)c3c(c(O)c1C2=O)C[C@@](O)(C(=O)CO)C[C@@H]3O[C@H]1C[C@H](N)[C@H](O)[C@H](C)O1 [Free drug doxorubicin, doxorubicin] | 1.5 | 0.4~3.4 % ID/g | clear tumor growth | – | – |
| Nc1ccn([C@@H]2O[C@H](CO)[C@@H](O)C2(F)F)c(=O)n1 [Free drug gemcitabine, gemcitabine] | 2.4 | 0.2~4.2 % ID/g | – | – | – |
| O=C1[O][Pt]2([NH][C@@H]3CCCC[C@H]3[NH]2)[O]C1=O [Free drug oxaliplatin, oxaliplatin] | – | 0.1~3.5 % ID/g | – | 2.5 | – |
| CC(=O)O[C@H]1C(=O)[C@@]2(C)[C@H]([C@H](OC(=O)c3ccccc3)[C@]3(O)C[C@H](OC(=O)[C@H](O)[C@@H](NC(=O)c4ccccc4)c4ccccc4)C(C)=C1C3(C)C)[C@]1(OC(C)=O)CO[C@@H]1C[C@@H]2O [Free drug paclitaxel, paclitaxel] | 0.52 | – | – | – | 30 |
